Laboratory results published in patent US7265130B2, “NPY Y5 antagonist” (Shionogi & Co., Ltd., priority 1999, dated 2007).

How the values were obtained:
human NPY Y5 receptor [1] = target: T1, human NPY Y5 receptor (Homo sapiens, UniProt Q15761); test: Affinity for NPY Y5 receptor ([125I] peptide YY binding, CHO cell membranes); conditions: inhibition of specific [125I] peptide YY binding, membranes of CHO cells expressing NPY Y5 receptor
T1 construct: expressed in transfected cells
T1 sequence (Q15761 1-445): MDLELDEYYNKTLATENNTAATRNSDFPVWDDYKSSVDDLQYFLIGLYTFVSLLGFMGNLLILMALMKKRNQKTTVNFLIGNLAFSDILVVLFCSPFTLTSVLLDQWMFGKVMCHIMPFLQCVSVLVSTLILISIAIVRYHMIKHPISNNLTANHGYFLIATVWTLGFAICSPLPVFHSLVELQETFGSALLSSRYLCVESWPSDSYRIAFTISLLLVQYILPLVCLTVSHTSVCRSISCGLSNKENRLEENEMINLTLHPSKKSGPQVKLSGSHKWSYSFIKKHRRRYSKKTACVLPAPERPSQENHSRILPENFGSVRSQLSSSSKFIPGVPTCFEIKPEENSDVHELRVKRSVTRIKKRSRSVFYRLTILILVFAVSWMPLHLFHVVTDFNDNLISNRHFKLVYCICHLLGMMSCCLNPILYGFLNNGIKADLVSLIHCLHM
Source text: Experiment 1 Affinity for NPY Y5 Receptor
cDNA sequence encoding a human NPY Y5 receptor (WO096/16542) was cloned in the expression vector pME18S (Takebe et al. Mol. Cell. Biol. 8, 8957). The obtained expression vector was transfected into a host CHO cells by using a Lipofect AMINE reagent (Trademark, Gibco BRL Co., Ltd.) according to an instruction protocol to obtain the cells that stably express NPY Y5 receptor.
The membranes prepared from the above CHO cells expressing NPY Y5 receptor, the compound of the present invention and 30,000 cpm [^125I] peptide YY (60 pM of final concentration: Amersham) were incubated in the assay buffer (20 mM HEPES-Hanks buffer containing 0.1% bovine serum albumin, pH 7.4) at 25° C. for 2 hours, and then the mixture was filtered with a glassfilter GF/C treated with polyethyleneimine. After the glassfilter was washed with 50 mM Tris-HCl buffer (pH 7.4), the radioactivity on the filter was measured with a gamma counter. The non-specific binding was detected in the presence of 200 nM of peptide YY. The 50% inhibitory concentration of the test compound against the specific peptide YY binding (IC50 value) was calculated (Inui, A. et al. Endocrinology 131, 2090-2096 (1992)).

human NPY Y5 receptor [2] = target: T1, human NPY Y5 receptor; test: cAMP production inhibitory activity in CHO cells; assay type: cell-based; conditions: against 50 nM NPY inhibition of forskolin stimulated cAMP, CHO cells expressing human NPY Y5 receptor
Procedure: Experiment 2 cAMP production inhibitory activity in CHO cells
After CHO cells expressing human NPY Y5 receptor were incubated in the presence of 2.5 mM isobutylmethylxanthine (SIGMA) at 37° C. for 20 min., the compound of the present invention was added and incubated for 5 min. Then, 50 nM NPY and 10 μM forskolin (SIGMA) were added to the cells and incubated for 30 min. After the reaction was terminated by adding 1N HCl, the amount of cAMP in the supernatant was measured with EIA kit (Amersham LIFE SCIENCE).

Row | Compound | IC50 (human NPY Y5 receptor [1]) | IC50 (human NPY Y5 receptor [2])
1 | CCCCc1ccc(NC(=O)N2CCC(NS(=O)(=O)C(C)(C)C)CC2)cc1 [Compound I-120, 4-t-butylsulfonylaminopiperidine-1-carboxylic acid(4-butylphenyl)amide] | 1.4 nM | 4.8 nM
2 | CCCCc1ccc(NC(=O)C23CCC(NS(=O)(=O)C(C)(C)C)(CC2)CC3)cc1 [Compound I-123] | 1.8 nM | 168 nM
3 | CC(=O)c1ccc(NC(=O)C2CCC(NS(=O)(=O)C(C)(C)C)CC2)cc1 (centres unmarked) [Compound I-127] | 1.4 nM | 30.4 nM
4 | CSc1ccc(NC(=O)C2CCC(NS(=O)(=O)C(C)(C)C)CC2)cc1 (centres unmarked) [Compound I-128] | 1.3 nM | 10.2 nM
5 | Cn1cc(Br)c(-c2cccc(NC(=O)C3CCC(NS(=O)(=O)C(C)(C)C)CC3)c2)n1 (centres unmarked) [Compound I-131] | 1.1 nM | 34.8 nM
6 | CCC(C)COC(=O)/C=C/c1ccc(NC(=O)C2CCC(NS(=O)(=O)C(C)(C)C)CC2)cc1 (centres unmarked) [Compound I-133] | 0.9 nM | 21.1 nM
7 | CC(C)(C)S(=O)(=O)NC1CCC(C(=O)Nc2cccc(Oc3ccccc3)c2)CC1 (centres unmarked) [Compound I-134] | 0.5 nM | 10 nM
8 | CC(C)(C)S(=O)(=O)NC1CCC(C(=O)Nc2ccc3c(c2)C(=O)c2ccccc2-3)CC1 (centres unmarked) [Compound I-135] | 0.7 nM | 22 nM
9 | CC(C)(C)S(=O)(=O)NC1CCC(C(=O)Nc2ccc(-c3ccc(C#N)cc3)cc2)CC1 (centres unmarked) [Compound I-137] | 1.4 nM | 68.2 nM
10 | Cc1ccc2cc(NC(=O)C3CCC(NS(=O)(=O)C(C)(C)C)CC3)ccc2n1 (centres unmarked) [Compound I-138] | 1 nM | 18.6 nM
11 | COc1ccc(NC(=O)C2CCC(NS(=O)(=O)C(C)(C)C)CC2)c(Sc2ccccc2)n1 (centres unmarked) [Compound I-141] | 0.42 nM | 7.4 nM
12 | CC(C)(C)S(=O)(=O)NC1CCC(C(=O)Nc2nc(-c3cccc4ccccc34)cs2)CC1 (centres unmarked) [Compound I-142] | 0.49 nM | 28 nM
13 | COC(=O)c1scc(NC(=O)C2CCC(NS(=O)(=O)C(C)(C)C)CC2)c1C(=O)OC (centres unmarked) [Compound I-143] | 3.5 nM | 44 nM
14 | CC(C)(C)S(=O)(=O)NC1CCC(C(=O)Nc2cccnc2Oc2ccc(F)cc2F)CC1 (centres unmarked) [Compound I-144] | 3.4 nM | 52 nM
15 | CC(C)(C)S(=O)(=O)NC1CCC(C(=O)NCCSCc2c(Cl)cccc2Cl)CC1 (centres unmarked) [Compound I-150] | 0.17 nM | 5.2 nM
16 | CSc1sc(C(=O)NNC(=O)C2CCC(NS(=O)(=O)C(C)(C)C)CC2)c2c1C(O)CCC2 (centres unmarked) [Compound I-153] | 1.7 nM | 29 nM

Row | Compound | IC50 (human NPY Y5 receptor [1]) | IC50 (human NPY Y5 receptor [2])
17 | CCOc1cccc(NC(=O)C2CCC(NS(=O)(=O)C(C)(C)C)CC2)c1 (centres unmarked) [Compound I-160] | 0.61 nM | 8.8 nM
18 | CC(C)(C)S(=O)(=O)NC1CCC(C(=O)Nc2cccc(O)c2)CC1 (centres unmarked) [Compound I-163] | 2.3 nM | 83 nM
19 | CCCCOc1ccc(NC(=O)C2CCC(NS(=O)(=O)C(C)(C)C)CC2)c(O)c1 (centres unmarked) [Compound I-165] | 0.44 nM | 47 nM
20 | CCCCOc1ccc(NC(=O)C2CCC(NS(=O)(=O)C(C)(C)C)CC2)cn1 (centres unmarked) [Compound I-167] | 0.72 nM | 39 nM
21 | CC(C)(C)S(=O)(=O)NC1CCC(C(=O)Nc2ccc(Oc3ccccc3)nc2)CC1 (centres unmarked) [Compound I-168] | 2.1 nM | 32 nM
22 | CCCCOc1ccc(NC(=O)C2CCC(NS(=O)(=O)C(C)(C)C)CC2)c(N)c1 (centres unmarked) [Compound I-172] | 0.91 nM | 36 nM
23 | CCCCOc1cccc(CNC(=O)C2CCC(NS(=O)(=O)C(C)(C)C)CC2)c1 (centres unmarked) [Compound I-187] | 0.58 nM | 13 nM
24 | CCCCOc1cccc(CONC(=O)C2CCC(NS(=O)(=O)C(C)(C)C)CC2)c1 (centres unmarked) [Compound I-191] | 1.1 nM | 11 nM
25 | CC(C)(C)S(=O)(=O)NC1CCC(C(=O)Nc2ccc3c(c2)CCC3=NO)CC1 (centres unmarked) [Compound I-198] | 7.2 nM | 33 nM
26 | CC(C)(C)S(=O)(=O)NC1CCC(C(=O)Nc2cccc(N3CCOCC3)c2)CC1 (centres unmarked) [Compound I-199] | 4.8 nM | 31 nM
27 | CC(C)(C)S(=O)(=O)NC1CCC(C(=O)Nc2ccc(Cc3ccncc3)cc2)CC1 (centres unmarked) [Compound I-206] | 5.9 nM | 54 nM
28 | CC(C)(C)S(=O)(=O)NC1CCC(C(=O)Nc2ccc3ncsc3c2)CC1 (centres unmarked) [Compound I-207] | 4.6 nM | 23 nM
29 | CC(C)(C)S(=O)(=O)NC1CCC(C(=O)Nc2ccc3sccc3c2)CC1 (centres unmarked) [Compound I-210] | 1.1 nM | 13 nM
30 | C[C@@H]1CN(c2cccc(NC(=O)C3CCC(NS(=O)(=O)C(C)(C)C)CC3)c2)C[C@H](C)O1 (some centres unmarked) [Ia-4] | 1.4 nM | 15 nM
31 | Cc1ccc(NC(=O)C2CCC(NS(=O)(=O)C(C)(C)C)CC2)cc1 (centres unmarked) [Ia-8] | 2.9 nM | 34 nM
32 | CCc1ccc(NC(=O)C2CCC(NS(=O)(=O)C(C)(C)C)CC2)cc1 (centres unmarked) [Ia-9] | 0.94 nM | 11 nM

More lines, in order of falling IC50 (human NPY Y5 receptor [1]), values ahead:

Row | IC50 (human NPY Y5 receptor [1]) | IC50 (human NPY Y5 receptor [2]) | Compound
33 | 7.1 nM | 63 nM | COc1ccc(CCNC(=O)C2CCC(NS(=O)(=O)C(C)(C)C)CC2)cc1OC (centres unmarked) [Compound I-147]
34 | 6.7 nM | 38 nM | CC(=O)c1cccc(NC(=O)C2CCC(NS(=O)(=O)C(C)(C)C)CC2)c1 (centres unmarked) [Compound I-197]
35 | 6.7 nM | 67 nM | CC(C)(C)S(=O)(=O)NC1CCC(C(=O)Nc2ccc3c(c2)OCCO3)CC1 (centres unmarked) [Compound I-202]
36 | 2.4 nM | 71 nM | CCCCOc1ccc(NC(=O)C2CCC(NS(=O)(=O)C(C)(C)C)CC2)c([N+](=O)[O-])c1 (centres unmarked) [Compound I-171]
37 | 2.3 nM | 20 nM | CC(C)(C)S(=O)(=O)NC1CCC(C(=O)Nc2cc(-c3ccco3)[nH]n2)CC1 (centres unmarked) [Compound I-146]
38 | 2.2 nM | 30.4 nM | COc1cc2c(cc1NC(=O)C1CCC(NS(=O)(=O)C(C)(C)C)CC1)oc1ccccc12 (centres unmarked) [Compound I-132]
39 | 2.1 nM | 174 nM | CC(C)(C)S(=O)(=O)NC1CCC(C(=O)Nc2cccc3cc4ccccc4cc23)CC1 (centres unmarked) [Compound I-129]
40 | 1.7 nM | 32 nM | COCOc1cccc(NC(=O)C2CCC(NS(=O)(=O)C(C)(C)C)CC2)c1 (centres unmarked) [Compound I-162]
41 | 1.4 nM | 6.8 nM | CCOc1ccc(NC(=O)C2CCC(NS(=O)(=O)C(C)(C)C)CC2)cc1OCC (centres unmarked) [Compound I-196]
42 | 1.1 nM | 42.5 nM | CC(C)(C)S(=O)(=O)NC1CCC(C(=O)Nc2ccc(C(C#N)c3ccccc3)c(Cl)c2)CC1 (centres unmarked) [Compound I-130]
43 | 0.83 nM | 15 nM | CCN(CCNC(=O)C1CCC(NS(=O)(=O)C(C)(C)C)CC1)c1ccccc1 (centres unmarked) [Compound I-149]
44 | 0.81 nM | 17 nM | CC(C)(C)S(=O)(=O)NC1CCC(C(=O)Nc2ccc3c(c2)CCC3=O)CC1 (centres unmarked) [Compound I-156]
45 | 0.71 nM | 5.9 nM | CCCCOc1ccc(NC(=O)C2CCC(NS(=O)(=O)C(C)(C)C)CC2)cc1 (centres unmarked) [Compound I-164]
46 | 0.6 nM | 13.2 nM | CC(C)(C)S(=O)(=O)NC1CCC(C(=O)Nc2cccc(OC(F)(F)C(F)F)c2)CC1 (centres unmarked) [Compound I-126]
47 | 0.49 nM | 3.1 nM | CCCCOc1cccc(NC(=O)C2CCC(NS(=O)(=O)C(C)(C)C)CC2)c1 (centres unmarked) [Compound I-161]
48 | 0.48 nM | 8.9 nM | CC(C)(C)S(=O)(=O)NC1CCC(C(=O)Nc2ccc3ncccc3c2)CC1 (centres unmarked) [Compound I-140]
49 | 0.44 nM | 4 nM | CC(C)(C)S(=O)(=O)NC1CCC(C(=O)Nc2nnc(-c3ccc(F)cc3)s2)CC1 (centres unmarked) [Compound I-213]
50 | 0.41 nM | 7.6 nM | CC(C)(C)S(=O)(=O)NC1CCC(C(=O)Nc2cnc3ccccc3c2)CC1 (centres unmarked) [Compound I-139]
51 | 0.37 nM | 9.7 nM | CCCCOc1ccc(NC(=O)C2CCC(NS(=O)(=O)C(C)(C)C)CC2)cc1O (centres unmarked) [Compound I-166]
52 | 0.17 nM | 2.6 nM | CC(C)(C)S(=O)(=O)NC1CCC(C(=O)NCCSCc2c(F)cccc2Cl)CC1 (centres unmarked) [Compound I-151]
